A melting point compilation (Tetko et al.; mined from patent text by program, amines drawn as free bases though some values may be those of a salt)

melting point | SMILES
106 to 108 °C | CSc1cnn(-c2c(Cl)cc(C(F)(F)F)cc2Cl)c1N
169 to 170 °C | O=c1c(-c2ccccc2)c(SCc2ccncc2)oc2cc(OCc3ccccc3)ccc12
301 to 302 °C | Nc1nc(NC(=O)c2cccnc2)nc(-c2ccc3ccccc3c2O)n1
135 to 137 °C | O=C(O)C(CC=Cc1ccccc1)Cc1cccc2ccccc12 (centres undefined)
140 to 142 °C | CCC(C)C(NC(=O)C(CS)C(F)(F)F)C(=O)O (centres undefined)
190 to 192 °C | COc1ccc(C(=O)Nc2ccc(-c3ccc(S(C)=O)cc3)cc2)cc1CCCN(C)C (centres undefined)
110 to 111 °C | COCC1CC(c2ccc3ccccc3c2C#N)=NO1 (centres undefined)
162 to 164 °C | Brc1cc(Br)c(COCc2cc(Br)c(Br)cc2Br)cc1Br
80 °C | CC(C)(C)OC(=O)N1CCC(CNC(=O)[C@@H]2CCCN2S(=O)(=O)c2ccc(Cl)c(CBr)c2Cl)CC1
161 to 165 °C | Cc1ccc(C2COc3cc(O)ccc3C2c2ccc(OCCN3CCCC3)cc2)cc1 (centres undefined)
154 to 155 °C | O=C(N[C@H](Cc1ccccc1)[C@H](O)C(=O)O)OCc1ccccc1
186 to 188 °C | C[C@@H]1S[C@@H](C(=O)Nc2ccc(CN3CCCC3)cc2)Cc2cc3c(cc2C1=O)OCO3
109 to 110 °C | CCCC1=C(C(=O)OCC)SCCS1=O (centres undefined)
157 °C | O=S(=O)(c1ccccc1)C(Cc1ccccc1)c1ccc(C(O)(C(F)(F)F)C(F)(F)F)cc1 (centres undefined)
233 to 235 °C | O=C1C(Cl)=C(N2CCN(c3nc4ccccc4o3)CC2)C(=O)c2nsnc21
73 to 76 °C | CCCCCCCCCCCCCCCCCC(=O)c1ccc(C2=NC(C)(C)CO2)cc1
306 to 308 °C | CC(=O)c1cn(-c2cc(C)c3[nH]c(=O)ccc3c2)c(C)n1
37 to 39 °C | Oc1ccc(Nc2nc(NCc3ccco3)nc(Nc3ccc(Br)cc3)n2)cc1
71.5 to 72.5 °C | CC(C)(C)C(=O)NCCCOc1ccncc1
298 to 300 °C | Cc1cc(C(=O)Nc2cc(-c3c(-c4ccc(F)c(C)c4)nc4cccnn34)ccn2)cc(Cl)n1
204 to 206 °C | O=[N+]([O-])c1cccc2c(O)ccnc12
155 to 157 °C | COc1ccc(CC2NC(=O)NC2=O)cc1OCc1ccccc1 (racemic)
146 °C | Cc1ccncc1-c1nc(-c2ccc(Cl)cc2)c(Cl)s1
69 to 71 °C | N#CC(Cl)Cc1ccc(Cl)cc1C(=O)c1ccccc1 (centres undefined)

melting point | SMILES
99 to 99.5 °C | C(=C\c1nc2ccccc2n1-c1nccs1)/c1ccccc1
180 to 183 °C | COCCO[C@@H]1c2ccn3c(CO)c(C)nc3c2N[C@H](c2ccccc2)[C@H]1O
124 °C | CC(=O)Nc1ccc(O)cc1F
84 to 89 °C | COC(=O)c1ccc(N=Cc2ccccc2)cn1
48 to 51 °C | O=c1oc2c(c(=O)n1C1CCCCCCC1)CCC2
265 to 267 °C | Cc1cc(N2CC=C(C(N)=O)CC2)c2c(C)c(C)n(-c3ccc(Cl)cc3Cl)c2n1
72 to 73 °C | N#Cc1ccc2oc(CCc3ccc(CO)cc3)cc2c1
186 to 190 °C | O=C(Nc1ccccc1)c1ccc(-c2n[nH]c3c2Cc2ccccc2-3)cc1
106 to 107 °C | CSC(=S)NCc1ccc([N+](=O)[O-])cc1
138 °C | CCOC(=O)N1CCc2nc3cccc(Cl)c3c(C)c2CC1
192 to 194 °C | Cc1cccc(Nc2cc(Nc3cccc(OCC(N)=O)c3)ncn2)c1
103 to 104 °C | CNCc1cn(-c2ccccc2)nc1OCc1ccc(OCc2nc(-c3ccco3)oc2C)c(OC)c1
76 to 77 °C | COC1=C(OC)C(=O)C2=C(CCC(CCOc3ccc(OC)cc3)CC2)C1=O
184 to 187 °C | CSc1cc2c(cc1C(F)(F)F)N(C(=O)Nc1ccc(CO)cc1)CC2
208 to 209 °C | Cc1nn(-c2ccc(Cl)c3c2CC(C)O3)c(=O)[nH]1 (centres undefined)
149 to 152 °C | CCNc1ncc(-c2cc(Cl)cc(Cl)c2Cl)c(N)n1
182 °C | CC#CCOc1ccc(SC(C(=O)NO)c2ccc(-c3cccs3)cc2)cc1 (centres undefined)
115 °C | O=Cc1ccnc2ccc(-c3ccccc3)cc12
214 to 215 °C | NCc1ccc(-c2nc(-c3ccccc3)c(-c3ccncc3)[nH]2)cc1
93 to 95 °C | COc1ccc(C(=O)c2ccc(Br)cc2)c(C)c1F
141 to 143 °C | CC1CCCN(c2nc(-n3cncn3)nc(Cl)c2-c2c(F)cc(F)cc2F)O1 (centres undefined)
158 to 160 °C | CC(C)Nc1cccnc1N1CCN(C(=O)c2ccc(C(=O)N3CCN(C)CC3)cc2)CC1
177 °C | Cc1cc2c(cc1Br)N1CCc3cccc(c31)C(N1CCN(C)CC1)=N2
150 to 153 °C | O=C(O)c1ccccc1Nc1ccc(CCCc2ccc([N+](=O)[O-])cc2)cc1

melting point | SMILES
97 to 98 °C | CC1CC(C)(C)c2ccc(O)cc2O1 (centres undefined)
84 to 85 °C | CC(C)Oc1ccc(CCCOc2ncccc2CC(=O)O)c(Oc2ncc(Cl)cc2Cl)c1
110 to 112 °C | COCCN(CCOC)Cc1ccc(NC(=O)C2=Cc3cc(-c4ccc(C)cc4)ccc3OCC2)cc1
116 to 119 °C | CC(=O)OC1CC2=CCC3C(CCC4(C)C(C(C)CCCC(C)C)CCC34)C2(C)CC1F (centres undefined)
113 to 115 °C | O=C(O)C(CCN1C(=O)c2ccccc2C1=O)Oc1c(Br)cc(-c2ccc(-c3c(Cc4ccccc4)sc4ccccc34)cc2)cc1Br (centres undefined)
> 220 °C | CN1CCN(c2ccc3[nH]c(=O)c(-c4csc(-c5ccncc5)n4)c(N)c3c2)CC1
194 to 195 °C | C[C@@H](NC(=O)c1cnc(-c2ccc(Cl)cc2)s1)[C@](O)(Cn1cncn1)c1ccc(F)cc1F
132 to 135 °C | CC(C)NC(=O)CC(=O)C=Cc1ccccc1[N+](=O)[O-]
124 to 126 °C | CC(C=O)C(C(=O)O)c1ccc(Cl)c(Cl)c1 (centres undefined)
116 to 123 °C | CN(C)CCCNC(=O)c1ccccc1NS(=O)(=O)c1cccc(C(F)(F)F)c1
100 to 101 °C | O=C(O)[C@@H]1Cc2cc(Cl)cc(Cl)c2O[C@@H]1C(F)(F)F
109 °C | Cc1cc(-n2ccnc2)c2cccc(OCc3c(Cl)ccc(S(=O)(=O)N4CCC[C@H]4C(=O)NCC4CCN(C(=O)c5cccnc5)CC4)c3Cl)c2n1
72 to 73 °C | Cc1cc(C)c2c(c1C)OCC2c1ccccc1 (centres undefined)
51 to 52 °C | C[C@@H]1OC(=O)C[C@H]2O[C@@H]12
184 to 187 °C | COc1cc(C=C2CC(=O)OC2=O)cc(OC)c1OC
179 to 180 °C | CCNC(=O)c1c(Cl)ccc(N(C)C)c1[Si](C)(C)C
176 to 178 °C | CC(C)(C)NCC(O)COc1ccc(-c2nc(-c3ccccc3)c[nH]2)cc1 (centres undefined)
96 to 98 °C | O=C(OCC1CCc2c(O)cccc2C1)N(c1ccccc1)c1ccccc1 (centres undefined)
219 to 222 °C | CC1Oc2ccc(Cn3ccnc3)cc2NC1=O (centres undefined)
121 to 123 °C | Cc1cc(C)c(C(=O)c2ccccc2)c(OCC(O)CNC(C)C)c1C (centres undefined)
81 to 87 °C | CN1CCN([C@H]2CC[C@@H](N)CC2)C1=O
114 °C | Nc1ccc(S(=O)(=O)NCCc2ccccc2)cc1
144 to 146 °C | Cn1cnc2c(N(Cc3ccccc3)Cc3ccccc3)nc(Cl)nc21
52 to 55 °C | COc1ccc(CNC(=S)N2C(=O)CC(c3ccc(OC)c(OC4CCCC4)c3)N2C)cc1 (centres undefined)

melting point | SMILES
> 300 °C | CC(C)(C)NC(=O)Nc1nc2nc(N)ncc2cc1-c1cccnc1
73 °C | COc1ccc2oc(CC3CCCCC3)c(CC#N)c2c1
141 °C | NCC(O)COc1cc([N+](=O)[O-])ccc1N (centres undefined)
127 to 130 °C | O=C1c2ccccc2C(=O)N1CC1CC(=O)N(Cc2ccccc2)c2ccccc2N1 (centres undefined)
143 to 144 °C | CCOC(=O)C1=C(C(=O)OC)CC(=O)C2=C1SC=C1C=CC=CN12
131 to 134 °C | COC(=O)COc1ccc(C(=O)c2ccccc2)c(O)c1
304 to 309 °C | O=C1N=C(NN2CCOCC2)SC1=Cc1cccc(-c2cc(F)c(O)c(C34CC5CC(CC(C5)C3)C4)c2)c1
211 to 215 °C | NS(=O)(=O)c1ccc(NN=C2C(=O)Nc3ccc(C(=O)NCc4cccnc4)cc32)cc1
99 to 100 °C | CCCCOC(=O)c1cccc2c1-c1ccccc1C2=C(C#N)C#N
188 to 190 °C | Nc1ccc(S(=O)(=O)c2cc(-c3ccccc3Cl)nc(N3CCCC3)c2)cc1
198 to 200 °C | COc1ccc(-c2[nH]cc(C(C)=O)c2N)cc1
136 to 137 °C | CCCC(C)C(=O)Nc1cccc(O)c1 (centres undefined)
72 to 74 °C | COc1cc(O)cc(CN2C(=O)N(c3cnn(Cc4c(C)noc4C)c3)C(=O)C2(C)C)c1
94 to 95 °C | CCC1(CO)COC(C(C)(C)Oc2ccc(Cl)cc2)=N1 (centres undefined)
84 to 85 °C | COc1cc(CCc2ccc(N)cc2)cc(OC)c1OC
102 to 104 °C | O=C(O)C1CCCN(C(=O)COC2CCN(C(=O)OCc3ccccc3)CC2)C1 (centres undefined)
211 to 213 °C | Fc1ccc(/C=C/C2=CCN(Cc3c[nH]c4ncccc34)CC2)cc1
200 to 205 °C | CNc1ccc(-c2nc(N3CCOCC3)c3sc(C(C)(C)Nc4ncc(C(=O)NO)cn4)cc3n2)cn1
76 to 78 °C | CN1C(=S)C(C)(C)N=C1SCc1ccccc1N(C)C
115 to 118 °C | CCN(CC)c1cccc(COc2ccc(N)nn2)c1
268 to 270 °C | Cn1cc(C2=C(c3c4n(c5ccccc35)CCCC(CO)C4)C(=O)NC2=O)c2ccccc21 (centres undefined)
65 to 70 °C | OC[C@H]1CC[C@H](c2ccc(F)cc2)CC1

SMILES | melting point
CC1(C)CN=C(c2cnc(S(C)(=O)=O)c(Cl)c2)O1 | 102 to 105 °C
O=C(NC1CC1)OC1c2ccccc2C(=O)N1c1ccc2ccc(Cl)nc2n1 (centres undefined) | 220 °C
COc1cc(CNC(=S)NC(COC(=O)C(C)(C)C)Cc2ccc(C)c(C)c2)ccc1O (centres undefined) | 43 to 48 °C
NC1=Nc2ccc([N+](=O)[O-])cc2C(c2ccccc2F)=NC1 | 225 to 227 °C
Cc1ncc([N+](=O)[O-])n1CCN(CCCCN(CCn1c([N+](=O)[O-])cnc1C)CCn1c([N+](=O)[O-])cnc1C)CCn1c([N+](=O)[O-])cnc1C | 194 to 196 °C
